Molecules are shown by their SMILES.

Usually melting point stands for the temperature, or range, at which the solid turns liquid. In turn, `CCc1ccc(-c2ccccc2C(=O)Nc2ccc(N3CCN(Cc4cccc(C#N)c4)CC3)cc2)cc1` gave a melting point of 118 to 122 °C.
For the molecule `COc1ccc(-c2ccc(C(C)C)cc2)c(C(=O)Nc2ccc(N3CCN(CC(N)=O)CC3)cc2)c1` [Example 38, 4′-Isopropyl-4-methoxy-biphenyl-2-carboxylic Acid [4-(4-carbamoylmethyl-piperazin-1-yl)-phenyl]-amide], the melting point lay in the range of 207 to 209 °C.
Regarding `O=C(Nc1ccc(N2CCN(Cc3cc[nH]n3)CC2)cc1)c1ccccc1-c1ccc(C(F)(F)F)cc1` [Example 71, 4′-Trifluoromethyl-biphenyl-2-carboxylic acid {4-[4-(1H-pyrazole-3-ylmethyl)-piperazine-1-yl]-phenyl}-amide], the melting point lay in the range of 194 to 196 °C.
In turn, `COc1cccc(C(=O)Nc2ccc(N3CCN(Cc4cccc(C#N)c4)CC3)cc2)c1OCCCc1ccccc1` [Example 33, N-[4-[4-(3-Cyano-benzyl)-piperazin-1-yl]-phenyl]-3-methoxy-2-(3-phenyl-propoxy)-benzamide] yielded a melting point of 134 to 136 °C.
Molecule `COc1cccc(C(=O)Nc2ccc(N3CCN(Cc4ccc[nH]4)CC3)cc2)c1-c1ccc(C(C)C)cc1` [Example 68, 4′-Isopropyl-6-methoxy-biphenyl-2-carboxylic acid [4-(4-(1H-pyrrol-2-ylmethyl)-piperazin-1-yl)-phenyl]-amide] had a melting point of 195 to 197 °C.
`N#Cc1cccc(C(=O)N2CCN(c3ccc(NC(=O)c4ccccc4-c4ccc(C(F)(F)F)cc4)cc3)CC2)c1` [Example 80, 4′-Trifluoromethyl-biphenyl-2-carboxylic Acid [4-[4-(3-cyano-benzoyl)-piperazin-1-yl]-phenyl]-amide] registered a melting point of 178.5 to 180 °C.
In turn, `O=C(Nc1ccc(N2CCN(Cc3c[nH]c4ccc(F)cc34)CC2)cc1)c1ccccc1-c1ccc(C(F)(F)F)cc1` [Example 73, 4′-Trifluoromethyl-biphenyl-2-carboxylic acid {4-[4-(5-fluoro-1H-indol-3-ylmethyl)-piperazin-1-yl]-phenyl}-amide] yielded a melting point of 168 to 170 °C.
As to `N#Cc1cccc(CN2CCN(c3ccc(NC(=O)c4ccccc4-c4ccccn4)cc3)CC2)c1` [Example 86, N-{4-[4-(3-Cyano-benzyl)-piperazin-1-yl]-phenyl}-2-pyridin-2-yl-benzamide], the melting point lay in the range of 169 to 171 °C.
`O=C(Nc1ccc(N2CCN(Cc3ccncc3)CC2)cc1)c1ccccc1-c1ccc(C(F)(F)F)cc1` came in with a melting point of 194 to 196 °C.
As for `O=C(Nc1ccc(N2CCN(Cc3nccs3)CC2)cc1)c1ccccc1-c1ccc(C(F)(F)F)cc1` (hydrate or solvate) [Example 59, 4′-Trifluoromethyl-biphenyl-2-carboxylic acid [4-(4-thiazol-2-ylmethyl-piperazin-1-yl)-phenyl]-amide], the melting point is 187 to 189 °C.
The figure for `O=C(Nc1ccc(N2CCN(CCCO)CC2)cc1)c1ccccc1-c1ccc(C(F)(F)F)cc1` [Example 44, 4′-Trifluoromethyl-biphenyl-2-carboxylic acid [4-(4-(3-hydroxy-propyl)-piperazin-1-yl]-phenyl]-amide] is 208 to 210 °C; for `CC(=O)N1CCN(c2ccc(NC(=O)c3ccccc3-c3ccc(C(F)(F)F)cc3)cc2)CC1` [Example 81, 4′-Trifluoromethyl-biphenyl-2-carboxylic Acid [4-(4-acetyl-piperazin-1-yl)-phenyl]-amide] it is 175 to 176.5 °C.
As for `N#Cc1cccc(CN2CCN(c3ccc(NC(=O)c4ccccc4OCc4ccc(C(F)(F)F)cc4)cc3)CC2)c1` [Example 27, N-[4-[4-(3-Cyano-benzyl)-piperazin-1-yl]-phenyl]-2-(4-trifluoromethyl-benzyloxy)-benzamide], the melting point is 190 to 191 °C.
The figure for `O=C(Nc1ccc(N2CCN(Cc3ccc4c(c3)OCO4)CC2)cc1)c1ccccc1-c1ccc(C(F)(F)F)cc1` [Example 48, 4′-Trifluoromethyl-biphenyl-2-carboxylic acid [4-(4-(3,4-methylenedioxy-benzyl)-piperazin-1-yl)-phenyl]-amide] is 189 to 191 °C; for `Cc1ccc(-c2ccc(C(F)(F)F)cc2)c(C(=O)Nc2ccc(N3CCN(Cc4cccc(C#N)c4)CC3)cc2)c1` it is 120 to 124 °C; for `N#Cc1cccc(CN2CCN(c3ccc(NC(=O)c4ccccc4-c4ccccc4)cc3)CC2)c1` (hydrate or solvate) [Example 11, Biphenyl-2-carboxylic acid (4-[4-(3-cyano-benzyl)-piperazin-1-yl]-phenyl]-amide] it is 169 to 171 °C.
As to `CC(=O)c1cccc(CN2CCN(c3ccc(NC(=O)c4ccccc4-c4ccc(C(F)(F)F)cc4)cc3)CC2)c1` [Example 66, 4′-Trifluoromethyl-biphenyl-2-carboxylic acid [4-(4-(3-acetyl-benzyl)-piperazin-1-yl)-phenyl]-amide], the melting point lay within 181 to 183 °C.
Molecule `N#Cc1cccc(CN2CCN(c3ccc(NC(=O)c4ccccc4OCCC4CCCCC4)cc3)CC2)c1` [Example 32, N-[4-[4-(3-Cyano-benzyl)-piperazin-1-yl]-phenyl]-2-(2-cyclohexyl-ethoxy)-benzamide] came in with a melting point of 119 to 121 °C.
`O=C(Nc1ccc(N2CCN(Cc3cccs3)CC2)cc1)c1ccccc1-c1ccc(C(F)(F)F)cc1` [Example 70, 4′-Trifluoromethyl-biphenyl-2-carboxylic acid [4-(4-thiophen-2-ylmethyl-piperazin-1-yl)-phenyl]-amide] showed a melting point of 181 to 183 °C.
For the molecule `N#Cc1cccc(CN2CCN(c3ccc(NC(=O)c4ccccc4Oc4ccccc4)cc3)CC2)c1` (hydrate or solvate) [Example 14, N-[4-[4-(3-Cyano-benzyl)-piperazin-1-yl]-phenyl]-2-phenoxy-benzamide], the melting point is 133 to 134 °C.
Take `COc1ccc(-c2ccccc2C(=O)Nc2ccc(N3CCN(Cc4cccc(C#N)c4)CC3)cc2)cc1`: the melting point was 124 to 128 °C.
For the molecule `COc1cccc(C(=O)Nc2ccc(N3CCN(Cc4cccc(-c5nc(C)no5)c4)CC3)cc2)c1-c1ccc(C(C)C)cc1` [Example 74, 4′-Isopropyl-6-methoxy-biphenyl-2-carboxylic acid (4-(4-(3-(3-methyl-[1,2,4]oxadiazol-5-yl)-benzyl)-piperazine-1-yl)-phenyl)-amide], the melting point lay in the range of 180 to 182 °C.
The molecule `Cn1ccnc1CN1CCN(c2ccc(NC(=O)c3ccccc3-c3ccc(C(F)(F)F)cc3)cc2)CC1` [Example 60, 4′-Trifluoromethyl-biphenyl-2-carboxylic acid [4-[4-(1-methyl-1H-imidazol-2-ylmethyl)-piperazin-1-yl)-phenyl]-amide] yielded a melting point of 118 to 120 °C.
With `COC(=O)c1cccc(CN2CCN(c3ccc(NC(=O)c4ccccc4-c4ccc(C(F)(F)F)cc4)cc3)CC2)c1` [Example 55, 4′-Trifluoromethyl-biphenyl-2-carboxylic acid [4-[4-(3-carbomethoxy-benzyl)-piperazin-1-yl]-phenyl]-amide], the melting point lay in the range of 190 to 192 °C.
Molecule `N#Cc1cccc(CN2CCN(c3cccc(NC(=O)c4ccccc4-c4ccc(C(F)(F)F)cc4)c3)CC2)c1` [Example 36, 4′-Trifluoromethyl-biphenyl-2-carboxylic Acid [3-[4-(3-cyano-benzyl)-piperazin-1-yl]-phenyl]-amide] returned a melting point of 170 to 172 °C.
Turning to `CC(C)c1ccc(-c2ccccc2C(=O)Nc2ccc(N3CCN(Cc4cccc(C#N)c4)CC3)cc2)cc1`, the melting point is 133 to 135 °C.
Take `O=C(NCC(F)(F)F)c1cccc(CN2CCN(c3ccc(NC(=O)c4ccccc4-c4ccc(C(F)(F)F)cc4)cc3)CC2)c1` [Example 79, 4′-Trifluoromethyl-biphenyl-2-carboxylic Acid (4-{4-[3-(2,2,2-trifluoro-ethylcarbamoyl)-benzyl]-piperazin-1-yl}-phenyl)-amide]: the melting point is 205 to 207 °C.
The molecule `Cc1ccc(-c2ccccc2C(=O)Nc2ccc(N3CCN(Cc4cccc(C#N)c4)CC3)cc2)cc1C` came in with a melting point of 140 to 144 °C.
Regarding `N#Cc1cccc(CN2CCN(c3ccc(NC(=O)c4ccc(Cl)cc4-c4ccc(C(F)(F)F)cc4)cc3)CC2)c1` [Example 10, 5-Chloro-4′-trifluoromethyl-biphenyl-2-carboxylic acid [4-[4-(3-cyano-benzyl)-piperazin-1-yl]-phenyl]-amide], the melting point lay in the range of 164 to 165 °C.
Turning to `COc1cccc(C(=O)Nc2ccc(N3CCN(Cc4cccc(C#N)c4)CC3)cc2)c1OCc1ccc(C(F)(F)F)cc1` [Example 28, N-[4-[4-(3-Cyano-benzyl)-piperazin-1-yl]-phenyl]-3-methoxy-2-(4-trifluoromethyl-benzyloxy)-benzamide], the melting point fell in the range of 118 to 119.5 °C.
As to `Cc1cccc(C(=O)Nc2ccc(N3CCN(CC(N)=O)CC3)cc2)c1-c1ccc(C(F)(F)F)cc1` [Example 40, 6-Methyl-4′-trifluoromethyl-biphenyl-2-carboxylic acid [4-(4-carbamoylmethyl-piperazin-1-yl)-phenyl]-amide], the melting point lay in the range of 196 to 198 °C.
The molecule `N#Cc1cccc(S(=O)(=O)N2CCN(c3ccc(NC(=O)c4ccccc4-c4ccc(C(F)(F)F)cc4)cc3)CC2)c1` [Example 82, 4′-Trifluoromethyl-biphenyl-2-carboxylic Acid [4-[4-(3-cyano-benzenesulfonyl)-piperazin-1-yl]-phenyl]-amide] gave a melting point of 223 °C.
In the case of `COc1ccc(-c2ccc(C(F)(F)F)cc2)c(C(=O)Nc2ccc(N3CCN(Cc4cccc(C#N)c4)CC3)cc2)c1`, the melting point is 151 to 155 °C.
On to `N#Cc1cccc(CN2CCN(c3ccc(NC(=O)c4ccccc4-c4ncc(-c5ccccc5)o4)cc3)CC2)c1` (hydrate or solvate) [Example 15, N-[4-[4-(3-Cyano-benzyl)-piperazin-1-yl]-phenyl]-2-(5-phenyl-oxazol-2-yl)-benzamide], for which the melting point was in the range of 209 to 211 °C.
Molecule `N#Cc1cccc(CN2CCN(c3ccc(NC(=O)c4ccccc4-c4ccc(F)cc4)cc3)CC2)c1` [Example 23, 4′-Fluoro-biphenyl-2-carboxylic acid [4-[4-(3-cyano-benzyl)-piperazin-1-yl]-phenyl]-amide] had a melting point of 200 to 202 °C.

Values taken from patent publication US6552022B1, “Benzamide derivatives and their use as ApoB-100 secretion inhibitors” (SmithKline Beecham Corporation, priority 1998, dated 2003).
